Tests used:
Assay type in all cases: cell-based
[1] = biological target: T1, human prostanoid TP receptor (Homo sapiens, UniProt P21731); test: FLIPR Ca2+ signaling antagonist assay, TP receptor stable cell line; settings: HEK-293 EBNA stable cell line; standard agonist U-46619; NA = inactive (no antagonism or Kb 10,000 nM); PAg, Ag not defined
T1 construct: expressed in transfected cells
T1 sequence (P21731 1-343): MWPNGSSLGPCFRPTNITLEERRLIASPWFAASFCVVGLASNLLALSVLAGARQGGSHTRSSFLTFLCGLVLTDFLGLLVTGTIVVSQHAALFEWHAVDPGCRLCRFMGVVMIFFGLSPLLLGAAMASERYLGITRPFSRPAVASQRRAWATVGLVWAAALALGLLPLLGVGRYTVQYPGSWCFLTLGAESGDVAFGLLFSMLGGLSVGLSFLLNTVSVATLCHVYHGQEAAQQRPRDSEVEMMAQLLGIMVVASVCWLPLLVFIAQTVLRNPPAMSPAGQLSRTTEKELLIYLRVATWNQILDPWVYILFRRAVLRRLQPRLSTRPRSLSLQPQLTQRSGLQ
Method: (§1) The above compounds were tested for PG antagonist activity as follows using human recombinant prostanoid receptor (DP1, EP1-4, FP, IP and TP) stable cell lines:
(§2) In order to measure the response of Gs and Gi coupled prostanoid receptors as a Ca^2+ signal, chimeric G protein cDNAs were used. Stable cell lines over-expressing human prostanoid DP1, EP1-4, FP, IP, and TP receptors were established as follows:
(§3) Briefly, human prostanoid DP1, EP2, and EP4 receptor cDNAs were co-transfected with chimeric Gqs cDNA containing a haemagglutanin (HA) epitope; human prostanoid EP3 receptors were co-transfected with chimeric Gqi-HA; human EP1, FP, IP, and TP receptor cDNAs were expressed with no exogenous G-proteins. Gqs and Gqi chimeric cDNAs (Molecular Devices, Sunnyvale, Calif., U.S.A.), as well as cDNAs of prostanoid receptors, were cloned into a pCEP4 vector with a hygromycin B selection marker. Transfection into HEK-293 EBNA (Epstein-Barr virus nuclear antigen) cells was achieved by the FuGENE 6 transfection Reagent (Roche Applied Science, Indianapolis, Ind., USA). Stable transfectants were selected according to hygromycin resistance. Because Gqs and Gqi contained an HA epitope, G-protein expression was detected by Western blotting analysis using anti-mouse HA monoclonal antibody and horseradish peroxidase (HRP)-conjugated secondary antibody, while functional expression of prostanoid receptors was detected by FLIPR screening (Matias et al., 2004). These stable cell lines were validated using previously published antagonists at 10 μM against serial dilutions of standard agonists by FLIPR functional assays for Ca^2+ Signaling (as described below).
(§4) Ca^2+ signaling studies were performed using a FLIPR TETRA system (Molecular Devices, Sunnyvale, Calif., USA) in the 384-format. This is a high-throughput instrument for cell-based assays to monitor Ca^2+ signaling associated with GPCRs and ion channels. Cells were seeded at a density of 5×10^4 cells/well in BioCoat poly-D-lysine coated, black wall, clear bottom 384-well plates (BD Biosciences, Franklin lakes, NJ, USA) and allowed to attach overnight in an incubator at 37° C. The cells were then washed twice with HBSS-HEPES buffer (Hanks' balanced salt solution without bicarbonate and phenol red, 20 mM HEPES, pH 7.4) using an ELx405 Select CW Microplate Washer (BioTek, Winooski, Vt., USA). After 60 min of dye-loading in the dark using the Ca^2+-sensitive dye Fluo-4AM (Invitrogen, Carlsbad, Calif., USA), at a final concentration of 2×10^−6M, the plates were washed 4 times with HBSS-HEPES buffer to remove excess dye and leaving 50 μl of buffer in each well. The plates were then placed in the FLIPR TETRA instrument and allowed to equilibrate at 37° C. AGN-211377 was added in a 25 μl volume to each well to give final concentrations of 0.1 μM, 0.3 μM, 1 μM, 3 μM, 10 μM, and 30 μM; or 0.067 μM, 0.1 μM, 0.2 μM, 0.3 μM, 0.67 μM, and 1 μM for cells over-expressing TP receptors. After 4.5 minutes, a 7-point serial dilution of the standard agonist for the corresponding receptor, in a 25 μl volume was injected at the final concentrations from 10^−11M to 10^−5M in 10-fold serial dilution increments for cells expressing human recombinant DP1, EP1, EP2, EP3, EP4, FP, and IP receptors. The dose range for the standard agonist for human recombinant TP receptors was from 10^−12 M to 10^−6 M. HBSS-HEPES buffer was used as the negative control for the standard agonists. Cells were excited with LED (light emitting diode) excitation at 470-495 nm and emission was measured through an emission filter at 515-575 nm. Assay plates were read for 3.5 minutes using the FLIPR^TETRA. The peak increase in fluorescence intensity was recorded for each well. On each plate, negative controls, dose response of positive controls, and co-treatments of antagonist-agonist for each dose were in triplicates.
(§5) Standard agonists were as follows: DP=BW 245C, EP1-EP4=PGE2, FP=17-phenyl-PGF2α, IP=Cicaprost, and TP=U-46619. […]

[2] = biological target: T2, human prostanoid IP receptor (Homo sapiens, UniProt P43119); test: FLIPR Ca2+ signaling antagonist assay, IP receptor stable cell line; settings: HEK-293 EBNA stable cell line; standard agonist Cicaprost; NA = inactive (no antagonism or Kb 10,000 nM); PAg, Ag not defined
T2 construct: expressed in transfected cells
T2 sequence (P43119 whole entry): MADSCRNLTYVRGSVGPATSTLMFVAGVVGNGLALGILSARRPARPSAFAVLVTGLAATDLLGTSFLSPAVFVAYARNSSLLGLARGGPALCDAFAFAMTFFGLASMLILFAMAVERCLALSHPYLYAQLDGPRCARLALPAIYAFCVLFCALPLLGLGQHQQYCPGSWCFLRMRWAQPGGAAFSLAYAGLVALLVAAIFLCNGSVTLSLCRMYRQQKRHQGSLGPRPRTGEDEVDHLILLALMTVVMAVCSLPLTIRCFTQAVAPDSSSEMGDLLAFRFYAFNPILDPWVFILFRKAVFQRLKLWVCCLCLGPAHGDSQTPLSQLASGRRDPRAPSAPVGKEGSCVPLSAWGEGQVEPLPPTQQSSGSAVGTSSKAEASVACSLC
Method: as §1, §2, §3, §4, §5

[3] = biological target: T3, human prostanoid EP1 receptor (Homo sapiens, UniProt P34995); test: FLIPR Ca2+ signaling antagonist assay, EP1 receptor stable cell line; settings: HEK-293 EBNA stable cell line; standard agonist PGE2; NA = inactive (no antagonism or Kb 10,000 nM); PAg, Ag not defined
T3 construct: expressed in transfected cells
T3 sequence (P34995 1-402): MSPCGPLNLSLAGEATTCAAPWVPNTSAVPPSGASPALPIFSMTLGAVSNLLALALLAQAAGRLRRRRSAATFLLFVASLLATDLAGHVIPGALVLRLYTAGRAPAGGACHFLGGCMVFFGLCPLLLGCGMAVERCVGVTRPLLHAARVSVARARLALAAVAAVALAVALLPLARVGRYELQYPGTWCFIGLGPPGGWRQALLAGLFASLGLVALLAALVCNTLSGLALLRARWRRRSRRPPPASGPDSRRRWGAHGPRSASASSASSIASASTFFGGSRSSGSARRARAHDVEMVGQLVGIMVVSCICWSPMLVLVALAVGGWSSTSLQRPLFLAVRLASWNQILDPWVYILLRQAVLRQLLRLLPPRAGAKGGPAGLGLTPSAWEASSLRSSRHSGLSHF
Method: as §1, §2, §3, §4, §5

[4] = biological target: T4, human prostanoid DP1 receptor (Homo sapiens, UniProt Q13258); test: FLIPR Ca2+ signaling antagonist assay, DP1 receptor stable cell line; settings: HEK-293 EBNA stable cell line; standard agonist BW 245C; NA = inactive (no antagonism or Kb 10,000 nM); PAg, Ag not defined
T4 construct: expressed in transfected cells
T4 sequence (Q13258 1-359): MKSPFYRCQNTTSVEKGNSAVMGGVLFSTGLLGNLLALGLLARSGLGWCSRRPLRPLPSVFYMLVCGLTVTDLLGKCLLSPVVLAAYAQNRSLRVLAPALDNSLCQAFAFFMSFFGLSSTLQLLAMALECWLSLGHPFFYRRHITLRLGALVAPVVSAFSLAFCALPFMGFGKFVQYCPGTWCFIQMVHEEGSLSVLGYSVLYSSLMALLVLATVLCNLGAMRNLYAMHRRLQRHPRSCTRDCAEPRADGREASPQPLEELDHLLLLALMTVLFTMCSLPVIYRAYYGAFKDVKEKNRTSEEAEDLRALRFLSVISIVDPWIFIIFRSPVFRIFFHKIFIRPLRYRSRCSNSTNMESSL
Method: as §1, §2, §3, §4, §5

[5] = biological target: T5, human prostanoid FP receptor (Homo sapiens, UniProt P43088); test: FLIPR Ca2+ signaling antagonist assay, FP receptor stable cell line; settings: HEK-293 EBNA stable cell line; standard agonist 17-phenyl-PGF2α; NA = inactive (no antagonism or Kb 10,000 nM); PAg, Ag not defined
T5 construct: expressed in transfected cells
T5 sequence (P43088 whole entry): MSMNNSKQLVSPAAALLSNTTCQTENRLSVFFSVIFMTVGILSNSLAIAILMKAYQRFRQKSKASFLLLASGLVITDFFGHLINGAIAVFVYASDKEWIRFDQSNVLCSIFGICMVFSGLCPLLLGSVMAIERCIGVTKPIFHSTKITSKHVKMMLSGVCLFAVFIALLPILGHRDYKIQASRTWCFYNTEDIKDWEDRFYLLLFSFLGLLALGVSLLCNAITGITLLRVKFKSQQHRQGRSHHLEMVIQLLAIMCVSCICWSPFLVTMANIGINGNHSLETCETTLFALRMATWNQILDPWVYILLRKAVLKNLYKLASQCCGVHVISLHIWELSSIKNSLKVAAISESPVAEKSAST
Method: as §1, §2, §3, §4, §5

[6] = biological target: T6, human prostanoid EP4 receptor (Homo sapiens, UniProt P35408); test: FLIPR Ca2+ signaling antagonist assay, EP4 receptor stable cell line; settings: HEK-293 EBNA stable cell line; standard agonist PGE2; NA = inactive (no antagonism or Kb 10,000 nM); PAg, Ag not defined
T6 construct: expressed in transfected cells
T6 sequence (P35408 whole entry): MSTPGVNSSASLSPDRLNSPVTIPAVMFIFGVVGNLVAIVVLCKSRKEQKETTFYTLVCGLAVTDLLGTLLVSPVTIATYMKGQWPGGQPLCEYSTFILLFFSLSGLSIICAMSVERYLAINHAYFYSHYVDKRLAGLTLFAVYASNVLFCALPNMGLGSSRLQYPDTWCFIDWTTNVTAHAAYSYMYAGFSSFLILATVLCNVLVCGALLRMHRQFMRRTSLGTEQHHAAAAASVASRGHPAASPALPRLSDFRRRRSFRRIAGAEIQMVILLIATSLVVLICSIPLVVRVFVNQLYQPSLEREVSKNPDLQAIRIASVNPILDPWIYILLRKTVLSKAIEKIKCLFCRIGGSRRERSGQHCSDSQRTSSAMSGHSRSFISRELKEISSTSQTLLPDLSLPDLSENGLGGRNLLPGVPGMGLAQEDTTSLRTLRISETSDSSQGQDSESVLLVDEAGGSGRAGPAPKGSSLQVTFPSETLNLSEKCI
Method: as §1, §2, §3, §4, §5

| Kb [1] [nM] | Kb [3] [nM] | Kb [5] [nM] | SMILES | Kb [2] [nM] | Kb [4] [nM] | Kb [6] [nM] | TP (FLIPR) Kb [1] |
| --- | --- | --- | --- | --- | --- | --- | --- |
| 1200 | 560 | 1000 | COc1ccc(OCC2CC2)c(Cn2nc(CCC(=O)O)cc2C)c1 [Example 54, 3-[1-(2-Cyclopropylmethoxy-5-methoxy-benzyl)-5-methyl-1H-pyrazol-3-yl]-propionic acid] |  | 1700 | 4700 |  |
| 160 | 180 | 1000 | Cc1cc(CCC(=O)O)nn1Cc1cc(Cl)ccc1OCC1(C(F)(F)F)CCCC1 [Example 37, 3-[1-(5-Chloro-2-(1-trifluoromethylcyclopentylmethoxy)benzyl)-5-methyl-1H-pyrazol-3-yl]-propionic acid] |  | 400 | 1900 |  |
| 160 | 180 | 1000 | Cc1cc(CCC(=O)O)nn1Cc1cc(Br)ccc1OCC1(C(F)(F)F)CCCC1 [Example 14, 3-[1-(5-Bromo-2-(1-trifluoromethylcyclopentylmethoxy)-benzyl)-5-methyl-1H-pyrazol-3-yl]-propionic acid] |  | 400 | 1900 |  |
| 5 | 14 | 500 | Cc1cc(CCC(=O)NS(=O)(=O)C(F)(F)F)nn1Cc1cc(Cl)ccc1OCC(C)C [Example 44, N-(3-[1-(5-Chloro-2-(2-methylpropyloxy)benzyl)-5-methyl-1H-pyrazol-3-yl]-propionyl)C,C,C-trifluoromethanesulfon amide] |  | 800 | 500 |  |
| 540 | 230 |  | Cc1cc(CCC(=O)NS(=O)(=O)c2ccccc2)nn1Cc1cc(Cl)ccc1OCc1ccc(Cl)cc1Cl [Example 28, N-(3-[1-(5-Chloro-2-(2,4-dichlorobenzyloxy)benzyl)-5-methyl-1H-pyrazol-3-yl]-propionyl)benzenesulfonamide] |  |  |  |  |
| 1000 | 800 | 4000 | Cc1cc(CCC(=O)O)nn1Cc1cc(Cl)ccc1OCC1CCCO1 (stereo not shown) [Example 33, 3-[1-(5-Chloro-2-(tetrahydrofuran-2-yl-methoxy)benzyl)-5-methyl-1H-pyrazol-3-yl]-propionic acid] |  |  |  |  |
| 35 | 240 | 660 | CCC(CC)Oc1ccc(Cl)cc1Cn1nc(CCC(=O)O)cc1C [Example 45, 3-[1-(5-Chloro-2-(1-ethylpropyloxy)benzyl)-5-methyl-1H-pyrazol-3-yl]-propionic acid] | 6100 | 500 |  |  |

| SMILES | Kb [1] [nM] | Kb [3] [nM] | Kb [5] [nM] | Kb [2] [nM] | Kb [4] [nM] | Kb [6] [nM] | TP (FLIPR) Kb [1] |
| --- | --- | --- | --- | --- | --- | --- | --- |
| CCc1ccc(OCC(CC)CC)c(Cn2nc(CCC(=O)O)cc2C)c1 [Example 66, 3-{1-[5-Ethyl-2-(2-ethyl-butoxy)-benzyl]-5-methyl-1H-pyrazol-3-yl}-propionic acid] | 8 | 100 | 500 | 1500 | 260 | 900 |  |
| CCC(CC)COc1ccc(-c2ccccc2)cc1Cn1nc(CCC(=O)O)cc1C [Example 63, 3-{1-[4-(2-Ethyl-butoxy)-biphenyl-3-ylmethyl]-5-methyl-1H-pyrazol-3-yl}-propionic acid] |  | 700 | 60 | 2200 | 170 | 4000 | PAg |
| CCC(CC)COc1ccc(F)cc1Cn1nc(CCC(=O)O)cc1C [Example 47, 3-[1-[2-(2-Ethyl-butoxy)-5-fluoro-benzyl]-5-methyl-1H-pyrazol-3-yl]-propionic acid] | 100 | 370 | 2300 |  | 240 | 400 |  |
| CCC(CC)COc1ccc(C(=O)O)cc1Cn1nc(CCC(=O)O)cc1C [Example 62, 3-{1-[5-Carboxy-2-(2-ethyl-butoxy)-benzyl]-5-methyl-1H-pyrazol-3-yl}-propionic acid] | 3700 | 2000 |  |  |  |  |  |
| CCC(C)(CC)COc1ccc(Br)cc1Cn1nc(CCC(=O)O)cc1C [Example 11, 3-{1-[5-Bromo-2-(2-ethyl-2-methyl-butoxy)-benzyl]-5-methyl-1H-pyrazol-3-yl}-propionic acid] | 25 | 36 | 110 |  | 380 | 430 |  |
| CCC(CC)COc1ccc(C(N)=O)cc1Cn1nc(CCC(=O)O)cc1C [Example 61, 3-{1-[5-Carbamoyl-2-(2-ethyl-butoxy)-benzyl]-5-methyl-1H-pyrazol-3-yl}-propionic acid] | 1100 |  |  |  |  | 800 |  |
| CCC(CC)COc1ccccc1Cn1nc(CC(C)C(=O)O)cc1C (racemic) [Example 69, 3-{1-[2-(2-ethyl-butoxy)-benzyl]-5-methyl-1H-pyrazol-3-yl}-2-methyl-propionic acid] | 300 | 180 | 2500 |  | 700 | 600 |  |

Source: US9394284B2, “Compounds act at multiple prostaglandin receptors giving a general anti-inflammatory response” (Allergan, Inc., priority 2010, dated 2016)
